In ChEMBL document CHEMBL3991601, “The target landscape of clinical kinase drugs” (Science, 2017) one finds Kd data, which are given here for seven compounds.

Assay [1] addresses T1, RNA cytidine acetyltransferase (Homo sapiens, UniProt Q9H0A0).
T1 sequence (Q9H0A0 whole entry): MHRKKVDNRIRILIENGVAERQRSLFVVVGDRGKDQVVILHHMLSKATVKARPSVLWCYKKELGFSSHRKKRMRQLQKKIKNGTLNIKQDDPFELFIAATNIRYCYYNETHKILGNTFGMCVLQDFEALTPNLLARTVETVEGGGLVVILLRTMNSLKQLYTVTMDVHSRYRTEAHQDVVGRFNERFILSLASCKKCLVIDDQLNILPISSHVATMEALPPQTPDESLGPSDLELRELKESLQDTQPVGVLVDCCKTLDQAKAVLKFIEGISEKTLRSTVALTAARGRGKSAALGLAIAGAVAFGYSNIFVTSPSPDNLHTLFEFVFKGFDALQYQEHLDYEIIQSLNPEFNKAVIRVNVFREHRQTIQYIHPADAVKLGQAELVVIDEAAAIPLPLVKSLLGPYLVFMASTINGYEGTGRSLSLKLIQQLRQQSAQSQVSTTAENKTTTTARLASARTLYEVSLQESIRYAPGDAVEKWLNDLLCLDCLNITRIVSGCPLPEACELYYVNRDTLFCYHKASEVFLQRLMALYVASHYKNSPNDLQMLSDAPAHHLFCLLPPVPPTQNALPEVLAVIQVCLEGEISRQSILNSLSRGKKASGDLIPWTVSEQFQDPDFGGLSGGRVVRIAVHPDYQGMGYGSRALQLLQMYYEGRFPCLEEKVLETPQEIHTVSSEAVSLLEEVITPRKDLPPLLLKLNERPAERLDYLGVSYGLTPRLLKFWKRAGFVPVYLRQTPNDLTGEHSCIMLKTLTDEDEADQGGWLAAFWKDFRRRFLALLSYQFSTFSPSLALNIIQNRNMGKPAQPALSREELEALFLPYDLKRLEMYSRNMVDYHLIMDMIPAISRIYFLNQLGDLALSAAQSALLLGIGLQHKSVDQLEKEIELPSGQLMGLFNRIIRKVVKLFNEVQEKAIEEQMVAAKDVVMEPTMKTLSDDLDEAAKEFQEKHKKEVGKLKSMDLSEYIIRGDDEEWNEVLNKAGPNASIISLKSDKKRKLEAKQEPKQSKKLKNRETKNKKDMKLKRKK

Assay [2] has as its target T2, Succinate--CoA ligase [ADP-forming] subunit beta, mitochondrial (Homo sapiens, UniProt Q9P2R7).
T2 sequence (Q9P2R7 whole entry): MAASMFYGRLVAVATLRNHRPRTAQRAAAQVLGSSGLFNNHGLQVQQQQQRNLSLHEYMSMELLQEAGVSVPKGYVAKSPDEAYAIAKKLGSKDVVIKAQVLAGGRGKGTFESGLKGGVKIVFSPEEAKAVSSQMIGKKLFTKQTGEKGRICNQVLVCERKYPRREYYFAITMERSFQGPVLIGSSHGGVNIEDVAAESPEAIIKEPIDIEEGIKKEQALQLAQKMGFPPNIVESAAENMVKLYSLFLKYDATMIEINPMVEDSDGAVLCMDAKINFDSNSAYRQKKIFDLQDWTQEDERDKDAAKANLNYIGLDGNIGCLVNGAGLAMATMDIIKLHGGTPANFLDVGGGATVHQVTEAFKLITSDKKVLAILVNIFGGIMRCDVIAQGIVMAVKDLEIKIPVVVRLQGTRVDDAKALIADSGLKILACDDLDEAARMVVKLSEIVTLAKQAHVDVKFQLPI

Assay [3] concerns the target T3, dCTP pyrophosphatase 1 (Homo sapiens, UniProt Q9H773).
T3 sequence (Q9H773 whole entry): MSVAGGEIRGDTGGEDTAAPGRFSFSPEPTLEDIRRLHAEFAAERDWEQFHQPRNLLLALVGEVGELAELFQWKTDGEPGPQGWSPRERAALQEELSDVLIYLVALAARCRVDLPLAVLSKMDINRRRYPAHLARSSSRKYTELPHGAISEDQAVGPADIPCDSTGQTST

The target of assay [4] is Platelet-derived growth factor receptor beta (Homo sapiens, UniProt P09619).
Sequence of Platelet-derived growth factor receptor beta (P09619 whole entry): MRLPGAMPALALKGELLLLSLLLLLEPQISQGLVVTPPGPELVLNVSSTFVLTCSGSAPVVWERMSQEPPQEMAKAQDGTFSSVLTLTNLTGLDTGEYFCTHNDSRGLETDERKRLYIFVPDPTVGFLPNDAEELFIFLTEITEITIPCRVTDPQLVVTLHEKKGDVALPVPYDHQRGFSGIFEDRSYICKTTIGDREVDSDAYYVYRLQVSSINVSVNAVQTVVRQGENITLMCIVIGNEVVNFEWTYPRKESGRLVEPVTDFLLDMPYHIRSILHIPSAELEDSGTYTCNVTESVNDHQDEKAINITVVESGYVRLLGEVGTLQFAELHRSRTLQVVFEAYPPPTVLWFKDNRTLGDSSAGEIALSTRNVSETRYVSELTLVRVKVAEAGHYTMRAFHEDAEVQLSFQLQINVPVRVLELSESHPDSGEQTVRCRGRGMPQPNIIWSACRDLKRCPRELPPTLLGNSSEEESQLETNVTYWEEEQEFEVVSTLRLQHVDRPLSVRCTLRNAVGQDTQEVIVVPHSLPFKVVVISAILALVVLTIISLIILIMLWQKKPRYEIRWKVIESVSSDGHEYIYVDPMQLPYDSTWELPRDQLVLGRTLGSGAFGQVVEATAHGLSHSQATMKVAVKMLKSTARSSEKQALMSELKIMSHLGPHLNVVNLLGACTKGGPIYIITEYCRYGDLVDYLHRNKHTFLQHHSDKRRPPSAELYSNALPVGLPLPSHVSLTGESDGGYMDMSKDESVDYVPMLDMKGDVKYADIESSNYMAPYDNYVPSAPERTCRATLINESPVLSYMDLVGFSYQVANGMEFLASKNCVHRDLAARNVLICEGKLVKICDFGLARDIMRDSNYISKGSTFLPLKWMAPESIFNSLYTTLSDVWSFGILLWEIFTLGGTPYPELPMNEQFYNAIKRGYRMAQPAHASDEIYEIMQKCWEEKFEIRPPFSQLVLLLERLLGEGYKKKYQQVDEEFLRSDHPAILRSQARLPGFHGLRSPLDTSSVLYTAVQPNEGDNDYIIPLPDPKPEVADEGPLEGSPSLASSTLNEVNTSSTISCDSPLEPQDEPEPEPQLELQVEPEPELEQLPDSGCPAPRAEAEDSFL
In assay [5] the target is Inosine-5'-monophosphate dehydrogenase 2 (Homo sapiens, UniProt P12268).
Assay [6] has as its target T4, Septin-9 (Homo sapiens, UniProt Q9UHD8).
T4 sequence (Q9UHD8 whole entry): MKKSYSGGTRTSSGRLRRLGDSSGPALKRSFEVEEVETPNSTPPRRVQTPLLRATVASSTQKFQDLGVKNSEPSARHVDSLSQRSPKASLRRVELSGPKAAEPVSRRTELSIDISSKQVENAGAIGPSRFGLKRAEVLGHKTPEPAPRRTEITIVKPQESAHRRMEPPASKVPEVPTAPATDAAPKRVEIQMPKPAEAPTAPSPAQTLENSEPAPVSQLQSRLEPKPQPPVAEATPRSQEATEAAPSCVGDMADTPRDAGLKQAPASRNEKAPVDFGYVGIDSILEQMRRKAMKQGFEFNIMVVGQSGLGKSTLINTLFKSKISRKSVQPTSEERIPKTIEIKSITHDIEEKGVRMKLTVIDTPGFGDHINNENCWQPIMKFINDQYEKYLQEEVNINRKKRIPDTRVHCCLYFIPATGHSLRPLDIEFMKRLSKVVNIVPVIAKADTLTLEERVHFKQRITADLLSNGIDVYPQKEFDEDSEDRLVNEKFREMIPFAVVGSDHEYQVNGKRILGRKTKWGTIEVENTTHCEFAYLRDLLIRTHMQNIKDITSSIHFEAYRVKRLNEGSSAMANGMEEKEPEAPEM

The target of assay [7] is Casein kinase I isoform delta (Homo sapiens, UniProt P48730).
Sequence of Casein kinase I isoform delta (P48730 whole entry, canonical isoform): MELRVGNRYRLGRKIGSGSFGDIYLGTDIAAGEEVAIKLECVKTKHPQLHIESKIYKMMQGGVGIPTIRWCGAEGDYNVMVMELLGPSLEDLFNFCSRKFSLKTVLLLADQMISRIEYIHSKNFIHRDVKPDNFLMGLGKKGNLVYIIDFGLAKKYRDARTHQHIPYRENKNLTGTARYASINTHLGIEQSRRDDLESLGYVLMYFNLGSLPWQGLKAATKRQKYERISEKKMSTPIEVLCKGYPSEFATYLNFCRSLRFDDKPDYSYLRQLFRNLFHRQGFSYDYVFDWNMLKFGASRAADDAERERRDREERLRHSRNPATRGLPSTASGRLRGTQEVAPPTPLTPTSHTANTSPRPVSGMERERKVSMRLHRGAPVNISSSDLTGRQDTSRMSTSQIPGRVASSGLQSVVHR
Assay [8] concerns the target Cyclin-dependent kinase 6 (Homo sapiens, UniProt Q00534).
For assay [9], the target named is Tyrosine-protein kinase Fer (Homo sapiens, UniProt P16591).
Sequence of Tyrosine-protein kinase Fer (P16591 whole entry): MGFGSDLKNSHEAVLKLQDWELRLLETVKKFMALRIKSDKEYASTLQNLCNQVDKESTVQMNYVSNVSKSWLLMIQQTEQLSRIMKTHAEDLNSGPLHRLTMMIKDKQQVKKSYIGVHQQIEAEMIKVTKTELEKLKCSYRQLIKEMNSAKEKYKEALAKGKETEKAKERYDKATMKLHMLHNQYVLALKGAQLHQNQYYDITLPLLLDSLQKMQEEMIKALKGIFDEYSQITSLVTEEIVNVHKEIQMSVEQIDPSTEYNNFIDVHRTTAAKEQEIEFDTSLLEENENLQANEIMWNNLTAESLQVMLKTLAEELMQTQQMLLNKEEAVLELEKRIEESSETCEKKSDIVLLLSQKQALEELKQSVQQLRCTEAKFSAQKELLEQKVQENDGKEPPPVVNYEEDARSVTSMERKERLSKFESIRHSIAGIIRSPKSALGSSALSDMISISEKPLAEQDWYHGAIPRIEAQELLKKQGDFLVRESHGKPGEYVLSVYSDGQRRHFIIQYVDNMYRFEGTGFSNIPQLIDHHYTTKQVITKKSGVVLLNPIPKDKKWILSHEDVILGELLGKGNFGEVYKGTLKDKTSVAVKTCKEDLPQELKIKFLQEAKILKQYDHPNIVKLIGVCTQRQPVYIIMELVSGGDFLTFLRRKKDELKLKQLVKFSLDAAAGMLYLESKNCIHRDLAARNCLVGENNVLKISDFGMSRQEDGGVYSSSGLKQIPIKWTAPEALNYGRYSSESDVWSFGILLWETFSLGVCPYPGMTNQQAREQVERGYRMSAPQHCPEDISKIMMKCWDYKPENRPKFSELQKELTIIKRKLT
The target of assay [10] is MAP/microtubule affinity-regulating kinase 3 (Homo sapiens, UniProt P27448).
Sequence of MAP/microtubule affinity-regulating kinase 3 (P27448 whole entry): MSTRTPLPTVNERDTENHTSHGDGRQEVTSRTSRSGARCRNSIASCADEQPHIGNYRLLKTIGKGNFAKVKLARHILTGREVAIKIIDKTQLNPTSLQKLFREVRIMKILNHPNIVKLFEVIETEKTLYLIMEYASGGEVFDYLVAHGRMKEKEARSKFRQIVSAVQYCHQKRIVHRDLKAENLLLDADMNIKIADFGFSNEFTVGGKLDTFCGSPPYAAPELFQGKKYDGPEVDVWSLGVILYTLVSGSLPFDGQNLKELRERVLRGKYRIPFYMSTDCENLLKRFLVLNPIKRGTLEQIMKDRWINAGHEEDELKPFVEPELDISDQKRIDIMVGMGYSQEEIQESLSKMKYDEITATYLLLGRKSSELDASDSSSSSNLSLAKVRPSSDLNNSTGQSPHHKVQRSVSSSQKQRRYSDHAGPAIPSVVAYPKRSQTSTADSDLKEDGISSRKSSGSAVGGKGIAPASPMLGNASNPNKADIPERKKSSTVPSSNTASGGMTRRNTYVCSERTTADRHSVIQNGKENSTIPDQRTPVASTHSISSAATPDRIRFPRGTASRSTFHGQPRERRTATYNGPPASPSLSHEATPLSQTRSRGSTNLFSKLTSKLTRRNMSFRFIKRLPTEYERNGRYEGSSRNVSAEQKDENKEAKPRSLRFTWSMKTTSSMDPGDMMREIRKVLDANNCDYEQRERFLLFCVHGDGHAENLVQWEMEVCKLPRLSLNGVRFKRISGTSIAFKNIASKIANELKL
Assay [11] concerns the target Structural maintenance of chromosomes protein 2 (Homo sapiens, UniProt O95347).

Molecules are shown by their SMILES. Calls of active or inactive are those of the source.
Further: in the data inactive means no Kd found up to 30 µM.

Sequence of Structural maintenance of chromosomes protein 2 (O95347 whole entry): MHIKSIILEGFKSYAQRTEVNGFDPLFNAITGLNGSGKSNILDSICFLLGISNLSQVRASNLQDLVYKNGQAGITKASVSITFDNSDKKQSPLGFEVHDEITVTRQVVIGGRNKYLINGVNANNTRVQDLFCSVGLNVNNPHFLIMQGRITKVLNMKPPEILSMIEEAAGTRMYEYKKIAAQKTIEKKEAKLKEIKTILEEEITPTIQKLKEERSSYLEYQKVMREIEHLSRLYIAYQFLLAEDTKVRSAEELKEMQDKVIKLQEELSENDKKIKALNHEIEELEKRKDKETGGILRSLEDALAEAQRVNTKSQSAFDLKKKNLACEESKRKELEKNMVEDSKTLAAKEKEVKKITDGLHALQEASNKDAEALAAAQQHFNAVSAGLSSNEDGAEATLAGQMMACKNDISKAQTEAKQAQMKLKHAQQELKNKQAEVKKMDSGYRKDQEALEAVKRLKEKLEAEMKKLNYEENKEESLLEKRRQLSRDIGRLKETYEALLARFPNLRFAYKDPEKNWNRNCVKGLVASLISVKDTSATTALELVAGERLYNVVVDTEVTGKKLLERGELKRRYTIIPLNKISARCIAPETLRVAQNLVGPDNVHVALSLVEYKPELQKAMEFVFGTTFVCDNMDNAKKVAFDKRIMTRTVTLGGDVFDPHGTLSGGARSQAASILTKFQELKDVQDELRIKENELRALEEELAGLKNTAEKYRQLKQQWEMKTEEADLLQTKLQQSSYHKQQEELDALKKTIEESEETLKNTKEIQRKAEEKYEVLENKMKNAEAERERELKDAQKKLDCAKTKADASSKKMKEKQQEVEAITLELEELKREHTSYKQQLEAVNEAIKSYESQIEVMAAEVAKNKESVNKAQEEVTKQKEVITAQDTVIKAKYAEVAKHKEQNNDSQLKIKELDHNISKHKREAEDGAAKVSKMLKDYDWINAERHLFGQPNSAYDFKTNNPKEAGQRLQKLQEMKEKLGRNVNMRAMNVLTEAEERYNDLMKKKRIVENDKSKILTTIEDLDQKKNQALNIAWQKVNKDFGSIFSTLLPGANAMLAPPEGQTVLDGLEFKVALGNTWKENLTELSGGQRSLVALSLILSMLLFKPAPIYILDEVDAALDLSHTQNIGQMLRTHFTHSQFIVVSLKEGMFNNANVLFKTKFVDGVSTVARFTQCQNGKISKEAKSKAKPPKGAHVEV
Sequence of Cyclin-dependent kinase 6 (Q00534 whole entry): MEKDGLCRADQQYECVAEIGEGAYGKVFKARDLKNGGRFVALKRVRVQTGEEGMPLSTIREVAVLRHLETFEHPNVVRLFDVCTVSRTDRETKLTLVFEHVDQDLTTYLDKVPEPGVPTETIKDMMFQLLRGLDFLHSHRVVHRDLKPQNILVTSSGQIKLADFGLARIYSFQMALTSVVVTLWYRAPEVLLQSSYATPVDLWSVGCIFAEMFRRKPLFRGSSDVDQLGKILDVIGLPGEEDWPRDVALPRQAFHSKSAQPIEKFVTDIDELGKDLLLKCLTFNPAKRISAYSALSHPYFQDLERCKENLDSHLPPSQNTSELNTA

Consider `Cc1c(Cn2c(C)nc3c(C(=O)O)cc(N4CCOCC4)cc32)cccc1C(F)(F)F` [GSK-2636771], for which the Kd in [1], in [2], in [3], in assay [4], in [5] and in assay [6] was > 30 µM (inactive) in each case. The Kd in assay [7], in assay [8], in [9], in assay [10] and in [11] was > 30 µM (inactive) throughout.

With `Cc1ccc(C(=O)Nc2ccc(Oc3cc4cnn(C)c4cc3-c3cn[nH]c3)c(F)c2)c(=O)n1-c1ccc(F)cc1` [MERESTINIB], the Kd in assay [1], in [2], in assay [3], in assay [4], in assay [5] and in [6] was > 30 µM (inactive) in each case. The Kd in [7], in [8], in [9], in assay [10] and in [11] was > 30 µM (inactive) each time.

With `CNC(=O)c1cc(COc2nnc(Nc3ccc(Cl)cc3)c3ccoc23)ccn1` [TELATINIB], the Kd (in general, the free concentration of one partner at which half of the binding sites on the other are occupied at equilibrium, for simple one-to-one binding) in [1] is > 30 µM (inactive); in assay [2], > 30 µM (inactive); in assay [3], > 30 µM (inactive); in assay [4], 0.555 µM (active); in assay [5], > 30 µM (inactive); in assay [6] it was > 30 µM (inactive). In addition, the Kd in assay [7], in assay [8], in assay [9], in [10] and in assay [11] was > 30 µM (inactive) each time.

In the case of `CNC(=O)c1cccc(-c2ccc3c(N4CCOC[C@@H]4C)nc(N4CCOC[C@@H]4C)nc3n2)c1` [VISTUSERTIB], the Kd in [1], in assay [2], in assay [3], in assay [4], in assay [5] and in assay [6] was > 30 µM (inactive) in each case. In addition, the Kd in assay [7], in [8], in assay [9], in [10] and in assay [11] was > 30 µM (inactive) throughout.

In the case of `O=C(NC[C@H](O)CO)c1ccncc1Nc1ccc(I)cc1F` [PIMASERTIB], the Kd in [1], in [2], in assay [3], in assay [4], in [5] and in [6] was > 30 µM (inactive) throughout. Besides, the Kd in [7], in assay [8], in [9], in [10] and in assay [11] was > 30 µM (inactive) in each case.

Regarding `COc1ccc2c(OCc3nnc4ccc(-c5ccccc5)nn34)ccnc2c1` [AMG-208], the Kd in assay [1], in assay [2], in [3], in assay [4], in assay [5] and in [6] was > 30 µM (inactive) throughout. For the same compound, the Kd in [7], in assay [8], in assay [9], in assay [10] and in [11] was > 30 µM (inactive) throughout.

Take `COc1ccc(-c2ccc3ncc4c(c3c2)n(-c2ccc(N3CCNCC3)c(C(F)(F)F)c2)c(=O)n4C)cn1` [BGT-226 FREE BASE]: the Kd in assay [1], in assay [2], in assay [3], in assay [4], in [5] and in assay [6] was > 30 µM (inactive) in each case. Besides, the Kd in assay [7], in assay [8], in assay [9], in [10] and in assay [11] was > 30 µM (inactive) throughout.
